# Biological target: T1, recombinant human AKR1C3 (Aldo-keto reductase family 1 member C3) (Homo sapiens, UniProt P42330)
# T1 construct: GST (cleaved yes); made in house; host or cells: E. coli
# T1 sequence (P42330 1-323): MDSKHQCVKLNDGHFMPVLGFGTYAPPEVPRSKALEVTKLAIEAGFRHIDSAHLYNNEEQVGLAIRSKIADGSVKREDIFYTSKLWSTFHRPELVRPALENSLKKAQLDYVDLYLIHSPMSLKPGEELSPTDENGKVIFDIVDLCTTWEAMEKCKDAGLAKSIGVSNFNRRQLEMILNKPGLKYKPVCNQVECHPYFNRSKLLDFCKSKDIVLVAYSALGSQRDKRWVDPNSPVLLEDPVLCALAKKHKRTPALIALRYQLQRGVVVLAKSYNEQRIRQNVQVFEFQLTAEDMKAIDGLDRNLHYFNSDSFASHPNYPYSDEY
# Assay: In Vitro Assay 1: AKR1C3-inhibitory activity (Coumberone to Coumberol fluorescence assay)
# Type: biochemical
# Conditions: recombinant enzyme, Coumberone 0.3 μM, NADPH 10 μM, 15 min pre-incubation, 4-parameter fit; average or median values
# In short: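 Recombinant human AKR1C3 (E. coli-expressed GST fusion, GST removed), typically ~1 nM, was preincubated 15 min with compound in 50 mM potassium phosphate pH 7 with 1 mM DTT. The reaction ran typically 90 min with 10 μM NADPH and 0.3 μM Coumberone (final), then was stopped with 1 μM EM-1404. Coumberol fluorescence (ex 380/em 520 nm) was normalized to no-inhibitor and no-enzyme controls.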
structure (smiles),measurement,value
"O=C(c1cnn[nH]1)N1C[C@@H]2[C@H](C1)[C@H]1CC[C@@H]2N1S(=O)(=O)c1ccc(F)cc1Cl [Example 39, {(3aR,4R,7S,7aS)-8-[(2-chloro-4-fluorophenyl)sulfonyl]octahydro-2H-4,7-epiminoisoindol-2-yl}(1H-1,2,3-triazol-5-yl)methanone]",IC50,4 nM
